Key:
[1] = molecular target: T1, Bacteriorhodopsin digested with chymotrypsin (Halobacterium salinarum, UniProt P02945); assay: Bacteriorhodopsin/Chymotrypsin digest, HPLC peak area versus RapiGest control; type: biochemical; settings: 0.025% surfactant, BR heated (boiled) with surfactant 5 minutes at 95° C., chymotrypsin 10:1, 1 hour at 37° C.; ratio to RapiGest control
T1 sequence (P02945 14-261 limits assumed): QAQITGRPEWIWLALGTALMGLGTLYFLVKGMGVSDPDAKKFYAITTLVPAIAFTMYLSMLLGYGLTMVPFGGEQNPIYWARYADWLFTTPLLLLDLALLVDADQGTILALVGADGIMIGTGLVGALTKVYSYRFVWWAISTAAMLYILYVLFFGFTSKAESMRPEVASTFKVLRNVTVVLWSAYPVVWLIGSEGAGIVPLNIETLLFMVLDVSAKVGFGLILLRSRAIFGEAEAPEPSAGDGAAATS
Procedure: Bacteriorhodopsin (25 μs) was heated with 0.025% Rapigest™ surfactant or the indicated compound of the invention for 5 minutes at 95° C., then digested with chymotrypsin (Sigma) at a 10:1 ratio in 125 μL 50 mM Ammonium bicarbonate for 1 hour at 37° C. After one hour TFA was added to 0.5-2% and the mixtures were incubated at 37° C. or 65° C. for 20 or 30 minutes. Degraded surfactant was removed by centrifugation at 14,000×g for 5 minutes. An aliquot of 50-100 μL of digested protein was analyzed by HPLC as described above.
Compound 3211, 3212, 3224 and Rapigest™ surfactant control for FIG. 13C reactions: Bacteriorhodopsin (25 μs) was solubilized with 0.025% compound of interest for 1-2 minutes at room temperature, then digested with chymotrypsin (Sigma) at a 10:1 ratio in 125 μL 50 mM Ammonium bicarbonate for 1 hour at 37° C. After one hour TFA was added to 0.5-2% and the mixtures were incubated at 37° C. or 65° C. for 20 or 30 minutes. Degraded surfactant was removed by centrifugation at 14,000×g for 5 minutes. An aliquot of 50-100 μL of digested protein was analyzed by HPLC as described above.
(§1) For each compound numbered below in Example 12, the rate of enhanced digestion was determined from the ratio of the surfactant peak area (surfactant # Pk. Area) to the Rapigest™ surfactant peak area (RG Pk area). Peak area was determined as the sum of all peaks integrated from 8-22 minutes.

[2] = Solubility of the surfactant; settings: for solubility in aqueous solutions (in words) / solubility in aqueous solutions (concentration dissolved to): aqueous solution; for solubility (concentration dissolved to): in 50 mM ammonium bicarbonate
[3] = molecular target: T2, Myoglobin from horse heart digested with trypsin (Equus caballus, UniProt P68082); assay: Myoglobin/Trypsin digest, HPLC peak area versus RapiGest control; type: biochemical; settings: 0.01% surfactant, trypsin 50:1, 20 minutes at 37° C.; ratio to RapiGest control, >1 = more digestion
T2 construct: Myoglobin from horse heart; from tissue; host or cells: horse heart
Procedure: Myoglobin from horse heart (typically 25 μs) was digested with trypsin (Promega) at a 50:1 ratio in a volume of 125 μL (typical) of 50 mM Ammonium bicarbonate for 20 minutes at 37° C. with 0.01% RapiGest™ surfactant or 0.01% of the indicated compound of the invention (upper and lower chromatograms, respectively). TFA was added to 0.5-2% and the mixtures were incubated at 37° C. or 65° C. for 20 or 30 minutes. Degraded surfactant was removed by centrifugation at 14,000×g for 5 minutes. HPLC analysis was performed on a 25-50 μL reaction sample using an HP1050 LC system with an Agilent Sorbax SB-C18 column (3.0×100 mm, 3.5 micron) and a gradient of 0.1% TFA (97.5% initial) and Acetonitrile, 0.01% TFA (55% final condition followed by a 100% wash step) and a flow rate of 0.75 mL/min. Peptides were detected at 214 and 280 nm.
as §1

[4] = Acid and thermal degradation of the surfactant; settings: for degradation after overnight incubation (in words): concentration not given; for acid-lability (in words): 0.5% TFA at 37° C. where stated (3237: 30 minutes), 3271 by TLC analysis; for thermolability (in words): 3266: 5 minutes at 95° C.; for degradation by acid (0.5% TFA) or by heat (boiling), in words: 3236: 0.1% solution in 0.5% TFA 30 minutes at 37° C. or 5 minutes of boiling without TFA
[5] = Hydrolytic stability in 50 mM ammonium bicarbonate (reverse-phase HPLC); type: physicochemical; parameters: key: >>: compound 100% stable over course of experiment
Procedure: Hydrolytic stability was measured by monitoring the change in retention time of the intact surfactant by reverse-phase HPLC. The ½-life is defined as the time required to reach 50% degradation.

[6] = surfactant conc. 0.025% in 50 mM ammonium bicarbonate
[7] = surfactant conc. 1% in 50 mM ammonium bicarbonate

T2 sequence (P68082 2-154 limits assumed): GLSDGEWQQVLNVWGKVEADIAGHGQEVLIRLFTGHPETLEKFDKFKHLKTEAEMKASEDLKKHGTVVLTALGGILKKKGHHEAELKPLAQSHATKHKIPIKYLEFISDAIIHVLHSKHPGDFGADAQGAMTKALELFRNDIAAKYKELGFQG

CCCCCCCCCCCc1ccc(C(OCCc2ccc(N(CCCCS(=O)(=O)[O-])CCCCS(=O)(=O)[O-])cc2)(c2ccccc2)c2ccc(OCCCCCCCCCC)cc2)cc1.[Na+].[Na+] (stereo not shown) [Compound 3216]
surfactant Pk area/RG Pk area, Bacteriorhodopsin/Chymotrypsin digest [1]: 0.7 | solubilized in DMSO to ([2]; 100% DMSO): 10% | solubility in aqueous solutions (in words) [2]: Insoluble in aqueous solutions

CCCCCC/C=C/C(C)OC(=O)NCCCS(=O)(=O)O (stereo not shown) [Compound 3201]
surfactant Pk area/RG Pk area, Bacteriorhodopsin/Chymotrypsin digest [1]: 0.4 | solubility in aqueous solutions (concentration dissolved to) [2]: 0.5% | surfactant Pk area/RG Pk area, Myoglobin/Trypsin digest [3]: 0.3

CCCCCC(OC(=O)NCCCS(=O)(=O)O)c1ccccc1 (stereo not shown) [Compound 3190]
surfactant Pk area/RG Pk area, Bacteriorhodopsin/Chymotrypsin digest [1]: 0.34 | time to degradation of 0.01% solution ([4]; 37° C. where stated): 30 min | degradation of 0.1% solution (in words) [4]: overnight | solubility in aqueous solutions (concentration dissolved to) [2]: 0.5%

CCCCCCOc1ccc(COC(=O)NCCCS(=O)(=O)O)cc1 [Compound 3186]
surfactant Pk area/RG Pk area, Bacteriorhodopsin/Chymotrypsin digest [1]: 0.45 | time to degradation of 0.01% solution ([4]; 37° C. where stated): ≤ 30 min | solubility in aqueous solutions (in words) [2]: some solubility in aqueous solution

CCCCCCCCCCCC(C)(C)OC(=O)Oc1ccc(NCCCCS(=O)(=O)O)cc1 [Compound 3195]
degradation after overnight incubation (in words) [4]: No degradation was observed even after overnight incubation | solubility in aqueous solutions (concentration dissolved to) [2]: not more than 0.2% | surfactant Pk area/RG Pk area, Myoglobin/Trypsin digest [3]: 0.5

CCCCCCCCCCC(OC(=O)NCCCS(=O)(=O)O)c1ccoc1 (stereo not shown) [Compound 3271]
½-life [5, 6]: >350 h | ½-life [5, 7]: >> | acid-lability (in words) [4]: Just partially acid-labile | thermolability (in words) [4]: thermostable | solubility in aqueous solutions (concentration dissolved to) [2]: 1% | surfactant Pk area/RG Pk area, Myoglobin/Trypsin digest [3]: 0.9

CCCCCCCCCCC(OC(=O)NCCCS(=O)(=O)O)c1ccc(C(F)(F)F)o1 (stereo not shown) [Compound 3275]
½-life [5, 6]: >300 h | ½-life [5, 7]: >> | degradation by acid (0.5% TFA) or by heat (boiling), in words [4]: Fully acid- and thermostable at the tested conditions | solubility in aqueous solutions (concentration dissolved to) [2]: 1% | surfactant Pk area/RG Pk area, Myoglobin/Trypsin digest [3]: 0.2

CCCCCCCCCCC(OC(=O)NCCCS(=O)(=O)O)c1ccsc1 (stereo not shown) [Compound 3273]
acid-lability (in words) [4]: Just partially acid-labile | thermolability (in words) [4]: thermostable | solubility in aqueous solutions (concentration dissolved to) [2]: 1% | surfactant Pk area/RG Pk area, Myoglobin/Trypsin digest [3]: 0.75

CCCCCCCCCCCC(C)(C)OC(=O)Oc1ccc(N(CCCCS(=O)(=O)[O-])CCCCS(=O)(=O)O)cc1.[Na+] [Compound 3196]
time to degradation of 0.01% solution ([4]; 37° C. where stated): 30 min | degradation of 0.1% solution (in words) [4]: overnight | solubility in aqueous solutions (concentration dissolved to) [2]: 0.5% | surfactant Pk area/RG Pk area, Myoglobin/Trypsin digest [3]: 0.65

CCCCCCCCCCOc1ccc(C(OCCc2ccc(N(CCCCS(=O)(=O)[O-])CCCCS(=O)(=O)[O-])cc2)(c2ccccc2)c2ccc(OC)cc2)cc1.[Na+].[Na+] (stereo not shown) [Compound 3219]
solubility in aqueous solutions (concentration dissolved to) [2]: 1%

CCCCCC(OC(=O)SCCS(=O)(=O)O)c1ccccc1 (stereo not shown) [Compound 3207]
time to degradation of 0.01% solution ([4]; 37° C. where stated): ≤ 60 min | solubility in aqueous solutions (concentration dissolved to) [2]: 0.5%

CCCCCCCCCCC(OC(=O)NCCCS(=O)(=O)O)c1ccc(Br)o1 (stereo not shown) [Compound 3270]
½-life [5, 6]: 6.5 h | ½-life [5, 7]: 40 h | solubility in aqueous solutions (concentration dissolved to) [2]: 0.5% | surfactant Pk area/RG Pk area, Myoglobin/Trypsin digest [3]: 0.8

CCCCCCCC(C)(C)OC(=O)Oc1ccc(NCCCS(=O)(=O)[O-])cc1.[Na+] [Compound 3210]
degradation rate (grade in words) [4]: moderate | solubility in aqueous solutions (concentration dissolved to) [2]: 0.5% | surfactant Pk area/RG Pk area, Myoglobin/Trypsin digest [3]: 0.3

CCCCCCCCCCCCC(OC(=O)NCCCS(=O)(=O)O)c1cc(OC)c(OC)c(OC)c1 (stereo not shown) [Compound 3267]
degradation by acid (0.5% TFA) or by heat (boiling), in words [4]: Did not degrade in 0.5% TFA or by boiling | solubility (concentration dissolved to) [2]: 2% | surfactant Pk area/RG Pk area, Myoglobin/Trypsin digest [3]: 0.9

CCCCCCC(OC(=O)NCCCS(=O)(=O)O)c1ccc(C(F)(F)F)cc1 (stereo not shown) [Compound 3199]
degradation after overnight incubation (in words) [4]: No degradation was observed even after overnight incubation | solubility in aqueous solutions (concentration dissolved to) [2]: 0.5% | surfactant Pk area/RG Pk area, Myoglobin/Trypsin digest [3]: 0.37

CCCCCCCCCCC(OC(=O)NCCCS(=O)(=O)[O-])c1ccc(OC)cc1.[Na+] (stereo not shown) [Compound 3212]
½-life ([5]; surfactant conc. 0.0025% in 50 mM ammonium bicarbonate): 3.7 h | ½-life [5, 6]: 21 h | ½-life ([5]; surfactant conc. 0.10% in 50 mM ammonium bicarbonate): 38 h | ½-life [5, 7]: >> | time to degradation in 0.5% TFA ([4]; 0.5% TFA, 37° C. where stated, 0.1% solution for 3220 and 3266): 15 min | time to degradation by boiling without TFA ([4]; boiling without TFA): 5 min | solubility (concentration dissolved to) [2]: 1% | surfactant Pk area/RG Pk area, Myoglobin/Trypsin digest [3]: 1.4

CCCCCCCCCCC(OC(=O)NCCCS(=O)(=O)O)c1ccc(Cl)o1 (stereo not shown) [Compound 3274]
½-life [5, 6]: ~6 h | degradation by acid (0.5% TFA) or by heat (boiling), in words [4]: Acid- and thermolabile | solubility in aqueous solutions (concentration dissolved to) [2]: 1% | surfactant Pk area/RG Pk area, Myoglobin/Trypsin digest [3]: 1

CCCCCC/C=C/C(C)OC(=O)Oc1ccc(NCCCS(=O)(=O)[O-])cc1.[Na+] (stereo not shown) [Compound 3209]
degradation after overnight incubation (in words) [4]: No degradation was observed even after overnight incubation | solubility in aqueous solutions (concentration dissolved to) [2]: 0.5% | surfactant Pk area/RG Pk area, Myoglobin/Trypsin digest [3]: 2.1

CCCCCCCCCCC(OC(=O)NCCCS(=O)(=O)O)c1cccs1 (stereo not shown) [Compound 3269]
½-life ([5]; surfactant conc. 0.03% in 50 mM ammonium bicarbonate): 7 h | ½-life [5, 7]: 135 h | solubility in aqueous solutions (concentration dissolved to) [2]: 1% | surfactant Pk area/RG Pk area, Myoglobin/Trypsin digest [3]: 1

CCCCCC/C=C/C(C)OC(=O)NCC(O)CS(=O)(=O)[O-].[Na+] (stereo not shown) [Compound 3203]
surfactant Pk area/RG Pk area, Bacteriorhodopsin/Chymotrypsin digest [1]: 0.4 | degradation of 0.1% solution (in words) [4]: degraded after overnight incubation | solubility in aqueous solutions (concentration dissolved to) [2]: 0.5%

— patent US10626349B2, “Cleavable surfactants” (PROMEGA CORPORATION, priority 2007, dated 2020)
